Reference: ChEMBL document CHEMBL3351907, “Design, synthesis and biological evaluation of benzyl 2-(1H-imidazole-1-yl) pyrimidine analogues as selective and potent Raf inhibitors” (Bioorg Med Chem Lett, 2014)

Key:
[1] = biological target: T1, RAF proto-oncogene serine/threonine-protein kinase (Homo sapiens, UniProt P04049); experiment: Inhibition of cRAF1 (unknown origin) at 10 uM
[2] = biological target: Proto-oncogene tyrosine-protein kinase ROS (Homo sapiens) (UniProt P08922); experiment: Inhibition of ROS/ROS1 (unknown origin) at 10 uM
[3] = biological target: Tyrosine-protein kinase BTK (Homo sapiens) (UniProt Q06187); experiment: Inhibition of BTK (unknown origin) at 10 uM
[4] = biological target: Epidermal growth factor receptor (Homo sapiens) (UniProt P00533); experiment: Inhibition of EGFR (unknown origin) at 10 uM
[5] = biological target: Focal adhesion kinase 1 (Homo sapiens) (UniProt Q05397); experiment: Inhibition of FAK/PTK2 (unknown origin) at 10 uM
[6] = biological target: Glycogen synthase kinase-3 beta (Homo sapiens) (UniProt P49841); experiment: Inhibition of GSK3b (unknown origin) at 10 uM
[7] = biological target: T2, Mitogen-activated protein kinase 14 (Homo sapiens, UniProt Q16539); experiment: Inhibition of P38a/MAPK14 (unknown origin)
[8] = biological target: Mitogen-activated protein kinase 10 (Homo sapiens) (UniProt P53779); experiment: Inhibition of JNK3 (unknown origin) at 10 uM
[9] = biological target: Mitogen-activated protein kinase 3 (Homo sapiens) (UniProt P27361); experiment: Inhibition of ERK1 (unknown origin) at 10 uM
[10] = biological target: RAC-alpha serine/threonine-protein kinase (Homo sapiens) (UniProt P31749); experiment: Inhibition of AKT1 (unknown origin) at 10 uM
[11] = biological target: T3, Serine/threonine-protein kinase B-raf (Homo sapiens, UniProt P15056); details: 10 uM
Description: Inhibition of BRAF (unknown origin) at 10 uM

[12] = biological target: ALK tyrosine kinase receptor (Homo sapiens) (UniProt Q9UM73); experiment: Inhibition of ALK (unknown origin) at 10 uM
[13] = system: Serine/threonine-protein kinase B-raf (Homo sapiens), P15056 [V600E]; details: 10 uM
Description: Inhibition of BRAF V599E mutant (unknown origin) at 10 uM

[14] = biological target: Macrophage colony-stimulating factor 1 receptor (Homo sapiens) (UniProt P07333); experiment: Inhibition of FMS (unknown origin) at 10 uM
[15] = Cytotoxicity against human U937 cells assessed as cell viability after 24 hrs by MTT assay; assay type: functional; details: U-937, 24 h
[16] = biological target: Insulin-like growth factor 1 receptor (Homo sapiens) (UniProt P08069); experiment: Inhibition of IGF1R (unknown origin) at 10 uM
[17] = biological target: Dual specificity mitogen-activated protein kinase kinase 1 (Homo sapiens) (UniProt Q02750); experiment: Inhibition of MEK1 (unknown origin) at 10 uM
[18] = biological target: Tyrosine-protein kinase SYK (Homo sapiens) (UniProt P43405); experiment: Inhibition of SYK (unknown origin) at 10 uM
[19] = biological target: T1, RAF proto-oncogene serine/threonine-protein kinase; experiment: Inhibition of RAF1 (unknown origin) at 10 uM
[20] = biological target: Serine/threonine-protein kinase PLK1 (Homo sapiens) (UniProt P53350); experiment: Inhibition of PLK1 (unknown origin) at 10 uM
[21] = biological target: Tyrosine-protein kinase Lck (Homo sapiens) (UniProt P06239); experiment: Inhibition of LCK (unknown origin) at 10 uM
[22] = biological target: Hepatocyte growth factor receptor (Homo sapiens) (UniProt P08581); experiment: Inhibition of c-MET (unknown origin) at 10 uM
[23] = biological target: Aurora kinase A (Homo sapiens) (UniProt O14965); experiment: Inhibition of Aurora A (unknown origin) at 10 uM
[24] = biological target: Tyrosine-protein kinase JAK3 (Homo sapiens) (UniProt P52333); experiment: Inhibition of JAK3 (unknown origin) at 10 uM
[25] = biological target: Tyrosine-protein kinase Lyn (Homo sapiens) (UniProt P07948); experiment: Inhibition of LYN (unknown origin) at 10 uM
[26] = biological target: Receptor-type tyrosine-protein kinase FLT3 (Homo sapiens) (UniProt P36888); experiment: Inhibition of FLT3 (unknown origin) at 10 uM
[27] = biological target: Tyrosine-protein kinase ABL1 (Homo sapiens) (UniProt P00519); experiment: Inhibition of ABL1 (unknown origin) at 10 uM
[28] = biological target: Mast/stem cell growth factor receptor Kit (Homo sapiens) (UniProt P10721); experiment: Inhibition of c-Kit (unknown origin) at 10 uM
[29] = Cytotoxicity against human A375P cells assessed as cell viability after 24 hrs by MTT assay; assay type: functional
[30] = biological target: Serine/threonine-protein kinase mTOR (Homo sapiens) (UniProt P42345); experiment: Inhibition of mTOR/FRAP1 (unknown origin) at 10 uM
[31] = biological target: T3, Serine/threonine-protein kinase B-raf; experiment: Inhibition of BRAF (unknown origin)
[32] = biological target: Serine/threonine-protein kinase B-raf (Homo sapiens, UniProt P15056, V600E); experiment: Inhibition of BRAF V599E mutant (unknown origin)
[33] = biological target: Cyclin-dependent kinase 1/cyclin B1 (Homo sapiens) (UniProt P06493+P14635); experiment: Inhibition of CDK1/cyclin B (unknown origin) at 10 uM; assay type: protein-complex assay
[34] = biological target: Fibroblast growth factor receptor 3 (Homo sapiens) (UniProt P22607); experiment: Inhibition of FGFR3 (unknown origin) at 10 uM
[35] = biological target: T2, Mitogen-activated protein kinase 14; experiment: Inhibition of P38a/MAPK14 (unknown origin) at 10 uM
[36] = biological target: Macrophage-stimulating protein receptor (Homo sapiens) (UniProt Q04912); experiment: Inhibition of RON/MST1R (unknown origin) at 10 uM
Homo sapiens = species: Homo sapiens; experiment: Inhibition of PKA (unknown origin) at 10 uM
[37] = biological target: Proto-oncogene tyrosine-protein kinase Src (Homo sapiens) (UniProt P12931); experiment: Inhibition of c-Src (unknown origin) at 10 uM
Sequence of Proto-oncogene tyrosine-protein kinase Src (Homo sapiens) (P12931 2-536 limits assumed): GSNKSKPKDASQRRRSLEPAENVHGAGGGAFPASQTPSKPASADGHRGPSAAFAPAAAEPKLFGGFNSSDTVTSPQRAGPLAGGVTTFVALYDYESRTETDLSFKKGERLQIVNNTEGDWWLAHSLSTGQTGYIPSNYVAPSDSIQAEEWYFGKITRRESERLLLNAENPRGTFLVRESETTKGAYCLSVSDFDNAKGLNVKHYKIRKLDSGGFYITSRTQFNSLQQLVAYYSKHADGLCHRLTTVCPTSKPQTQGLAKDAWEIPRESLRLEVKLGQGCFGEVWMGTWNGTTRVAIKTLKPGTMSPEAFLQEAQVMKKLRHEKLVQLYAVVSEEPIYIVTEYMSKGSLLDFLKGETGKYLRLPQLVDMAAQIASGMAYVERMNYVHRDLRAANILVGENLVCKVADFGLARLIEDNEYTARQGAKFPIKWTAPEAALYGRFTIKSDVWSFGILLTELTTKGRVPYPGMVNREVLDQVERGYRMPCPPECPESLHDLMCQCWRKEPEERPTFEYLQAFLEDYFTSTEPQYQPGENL

T2 sequence (Q16539 whole entry): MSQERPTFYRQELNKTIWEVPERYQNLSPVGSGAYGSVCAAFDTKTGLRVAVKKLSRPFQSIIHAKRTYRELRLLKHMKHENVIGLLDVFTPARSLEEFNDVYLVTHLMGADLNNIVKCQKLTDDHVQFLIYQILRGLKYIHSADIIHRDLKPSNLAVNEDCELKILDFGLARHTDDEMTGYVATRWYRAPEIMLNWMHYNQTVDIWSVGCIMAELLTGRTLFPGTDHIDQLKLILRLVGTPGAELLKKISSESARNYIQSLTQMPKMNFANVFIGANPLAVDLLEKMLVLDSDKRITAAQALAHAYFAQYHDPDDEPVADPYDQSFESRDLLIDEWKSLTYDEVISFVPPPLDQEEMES
T1 sequence (P04049 whole entry): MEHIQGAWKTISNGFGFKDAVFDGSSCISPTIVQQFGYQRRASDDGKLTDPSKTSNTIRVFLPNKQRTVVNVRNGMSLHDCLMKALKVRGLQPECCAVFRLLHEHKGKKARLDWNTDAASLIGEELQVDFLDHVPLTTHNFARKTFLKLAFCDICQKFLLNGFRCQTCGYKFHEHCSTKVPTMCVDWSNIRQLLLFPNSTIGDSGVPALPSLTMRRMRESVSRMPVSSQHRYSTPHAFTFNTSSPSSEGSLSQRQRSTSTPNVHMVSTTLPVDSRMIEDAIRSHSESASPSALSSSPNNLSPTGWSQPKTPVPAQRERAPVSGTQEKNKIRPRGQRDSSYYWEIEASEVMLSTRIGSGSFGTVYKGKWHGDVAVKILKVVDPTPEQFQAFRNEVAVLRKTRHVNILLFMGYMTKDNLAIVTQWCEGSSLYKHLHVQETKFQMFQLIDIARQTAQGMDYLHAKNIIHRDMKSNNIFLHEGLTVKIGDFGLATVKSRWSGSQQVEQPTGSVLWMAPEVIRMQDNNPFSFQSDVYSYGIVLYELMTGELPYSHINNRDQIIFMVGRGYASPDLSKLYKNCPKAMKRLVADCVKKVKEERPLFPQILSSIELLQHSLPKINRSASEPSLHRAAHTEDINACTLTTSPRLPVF
T3 sequence (P15056 whole entry): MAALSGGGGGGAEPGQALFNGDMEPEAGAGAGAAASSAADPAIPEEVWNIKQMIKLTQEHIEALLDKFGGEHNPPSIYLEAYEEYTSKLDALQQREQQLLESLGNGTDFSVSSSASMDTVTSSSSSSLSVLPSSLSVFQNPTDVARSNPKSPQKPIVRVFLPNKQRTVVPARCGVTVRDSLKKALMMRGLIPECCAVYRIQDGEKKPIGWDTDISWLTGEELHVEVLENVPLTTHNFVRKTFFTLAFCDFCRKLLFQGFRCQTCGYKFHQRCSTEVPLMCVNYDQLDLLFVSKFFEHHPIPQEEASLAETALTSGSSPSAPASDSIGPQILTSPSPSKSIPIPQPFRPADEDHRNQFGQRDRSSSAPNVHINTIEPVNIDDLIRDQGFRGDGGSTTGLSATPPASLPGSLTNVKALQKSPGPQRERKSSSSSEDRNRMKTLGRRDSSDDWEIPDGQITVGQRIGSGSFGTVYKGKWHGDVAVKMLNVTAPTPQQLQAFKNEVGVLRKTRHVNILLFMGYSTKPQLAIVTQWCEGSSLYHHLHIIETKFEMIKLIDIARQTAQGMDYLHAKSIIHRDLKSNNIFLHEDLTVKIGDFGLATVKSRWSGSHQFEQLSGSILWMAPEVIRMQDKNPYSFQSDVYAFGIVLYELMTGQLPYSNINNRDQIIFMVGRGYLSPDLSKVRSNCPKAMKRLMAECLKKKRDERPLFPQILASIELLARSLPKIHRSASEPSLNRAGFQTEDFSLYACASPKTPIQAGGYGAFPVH
Sequence of RAC-alpha serine/threonine-protein kinase (Homo sapiens) (P31749 whole entry): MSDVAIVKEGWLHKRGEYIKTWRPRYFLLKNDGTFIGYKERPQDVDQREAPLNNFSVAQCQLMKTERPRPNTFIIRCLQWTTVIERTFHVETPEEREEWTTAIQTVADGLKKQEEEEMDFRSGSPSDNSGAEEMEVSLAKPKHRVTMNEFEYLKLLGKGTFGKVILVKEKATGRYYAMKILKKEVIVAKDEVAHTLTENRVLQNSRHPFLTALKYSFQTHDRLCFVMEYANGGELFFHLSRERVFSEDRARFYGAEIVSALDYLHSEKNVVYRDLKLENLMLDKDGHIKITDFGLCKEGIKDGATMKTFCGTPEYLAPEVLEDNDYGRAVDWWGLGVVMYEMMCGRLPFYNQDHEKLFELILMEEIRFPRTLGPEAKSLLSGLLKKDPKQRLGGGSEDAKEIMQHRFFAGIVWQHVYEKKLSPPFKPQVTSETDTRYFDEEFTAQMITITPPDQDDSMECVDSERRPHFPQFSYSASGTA
Sequence of Mitogen-activated protein kinase 3 (Homo sapiens) (P27361 whole entry): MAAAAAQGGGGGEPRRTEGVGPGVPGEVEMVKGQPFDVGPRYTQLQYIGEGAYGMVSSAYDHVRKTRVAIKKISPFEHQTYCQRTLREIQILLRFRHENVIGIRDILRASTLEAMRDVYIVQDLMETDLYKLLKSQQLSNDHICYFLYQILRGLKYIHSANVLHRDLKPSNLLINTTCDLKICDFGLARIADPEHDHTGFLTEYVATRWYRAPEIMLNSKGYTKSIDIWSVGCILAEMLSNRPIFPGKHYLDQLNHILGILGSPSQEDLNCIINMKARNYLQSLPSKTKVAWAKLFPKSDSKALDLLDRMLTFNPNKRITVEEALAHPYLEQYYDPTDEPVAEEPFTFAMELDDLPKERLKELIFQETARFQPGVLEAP
Sequence of Dual specificity mitogen-activated protein kinase kinase 1 (Homo sapiens) (Q02750 whole entry): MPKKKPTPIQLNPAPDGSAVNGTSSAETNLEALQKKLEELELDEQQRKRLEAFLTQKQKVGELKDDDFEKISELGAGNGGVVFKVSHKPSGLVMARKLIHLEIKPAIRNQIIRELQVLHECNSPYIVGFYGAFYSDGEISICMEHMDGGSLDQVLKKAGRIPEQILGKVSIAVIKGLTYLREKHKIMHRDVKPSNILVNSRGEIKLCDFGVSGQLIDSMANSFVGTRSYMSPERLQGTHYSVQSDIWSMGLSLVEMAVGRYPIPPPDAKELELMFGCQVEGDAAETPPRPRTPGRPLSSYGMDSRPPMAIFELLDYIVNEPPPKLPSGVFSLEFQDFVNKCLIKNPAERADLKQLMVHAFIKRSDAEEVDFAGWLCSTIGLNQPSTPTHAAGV
Sequence of Fibroblast growth factor receptor 3 (Homo sapiens) (P22607 23-806 limits assumed): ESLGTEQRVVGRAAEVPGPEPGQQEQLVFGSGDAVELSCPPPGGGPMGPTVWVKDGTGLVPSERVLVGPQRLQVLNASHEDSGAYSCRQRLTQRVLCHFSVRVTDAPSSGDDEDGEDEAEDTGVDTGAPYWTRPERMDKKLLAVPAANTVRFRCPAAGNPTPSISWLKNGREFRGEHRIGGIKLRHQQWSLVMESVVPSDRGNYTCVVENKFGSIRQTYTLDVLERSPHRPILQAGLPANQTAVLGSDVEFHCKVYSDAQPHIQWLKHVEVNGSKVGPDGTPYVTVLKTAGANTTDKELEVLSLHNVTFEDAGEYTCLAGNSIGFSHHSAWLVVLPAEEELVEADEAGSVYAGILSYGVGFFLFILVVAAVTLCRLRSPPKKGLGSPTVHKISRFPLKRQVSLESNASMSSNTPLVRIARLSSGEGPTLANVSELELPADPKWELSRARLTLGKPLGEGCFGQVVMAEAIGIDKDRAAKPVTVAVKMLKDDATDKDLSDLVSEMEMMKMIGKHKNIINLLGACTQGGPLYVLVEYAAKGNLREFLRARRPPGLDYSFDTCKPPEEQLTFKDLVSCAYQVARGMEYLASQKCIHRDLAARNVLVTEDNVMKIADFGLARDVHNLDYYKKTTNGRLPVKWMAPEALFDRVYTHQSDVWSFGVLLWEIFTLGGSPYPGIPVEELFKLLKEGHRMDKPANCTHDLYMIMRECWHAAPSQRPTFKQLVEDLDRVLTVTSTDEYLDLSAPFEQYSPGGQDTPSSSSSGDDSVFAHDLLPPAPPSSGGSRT
Sequence of Aurora kinase A (Homo sapiens) (O14965 whole entry): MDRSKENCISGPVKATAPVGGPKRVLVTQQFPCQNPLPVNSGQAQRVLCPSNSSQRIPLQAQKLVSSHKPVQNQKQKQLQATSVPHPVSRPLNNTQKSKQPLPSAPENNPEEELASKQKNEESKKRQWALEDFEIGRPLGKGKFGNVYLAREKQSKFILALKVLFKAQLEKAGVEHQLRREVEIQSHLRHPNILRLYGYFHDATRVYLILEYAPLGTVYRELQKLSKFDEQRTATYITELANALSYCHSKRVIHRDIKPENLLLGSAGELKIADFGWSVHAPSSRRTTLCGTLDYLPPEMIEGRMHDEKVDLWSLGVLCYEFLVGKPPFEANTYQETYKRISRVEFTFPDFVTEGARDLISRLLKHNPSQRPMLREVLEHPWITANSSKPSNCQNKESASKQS
Sequence of Serine/threonine-protein kinase B-raf (Homo sapiens), P15056 [V600E] (P15056 whole entry V600E): as the sequence (P15056 whole entry) above, with V600E counted along it

C[C@H](O)CNc1nccc(-n2ccnc2Cc2cccc(NC(=O)Nc3ccc(Cl)c(C(F)(F)F)c3)c2)n1
IC50 [1]: 8.79 nM | inhibition [2]: 0.73% | inhibition [3]: 0% | inhibition [4]: 0% | inhibition [5]: 1.2% | inhibition [6]: 34.5% | IC50 [7]: 571 nM | inhibition [8]: 0% | inhibition [9]: 0% | inhibition [10]: 12.9% | inhibition [11]: 99.9% | inhibition [12]: 4.9% | inhibition [13]: 96.1% | inhibition [14]: 33.6% | GI50 [15]: 2730 nM | inhibition [16]: 0% | inhibition [17]: 0% | inhibition [18]: 0% | inhibition [19]: 98.7% | inhibition [20]: 9.9% | inhibition [21]: 5.8% | inhibition [22]: 17.6% | inhibition [23]: 17.6% | inhibition [24]: 0% | inhibition [25]: 8.1% | inhibition [26]: 68.4% | inhibition [27]: 6.9% | inhibition [28]: 63.8% | GI50 [29]: 1820 nM | inhibition [30]: 0% | IC50 [31]: 186 nM | IC50 [32]: 38.3 nM | inhibition [33]: 34.8% | inhibition [34]: 3.5% | inhibition [35]: 94.3% | inhibition [36]: 0.42% | inhibition (Homo sapiens): 0% | inhibition [37]: 2.1%
